Reference: patent US6924305B2, “Diazocine derivatives and their use as tryptase inhibitors” (Altana Pharma AG, priority 2001, dated 2005)

Biological target: human tryptase
Test: Inhibition of human tryptase (apparent dissociation constant, chromogenic substrate tos-Gly-Pro-arg-pNA)
Type: biochemical
Details: pKiapp = -log Kiapp (mol/l), in presence of substrate, heparin 0.1-50 μg/ml, equilibrium conditions
Description: The documented pathophysiological effects of mast cell tryptase are caused directly by the enzymatic activity of the protease. Accordingly, they are reduced or blocked by inhibitors which inhibit the enzymatic activity of the tryptase. A suitable measure for the affinity of a reversible inhibitor to the target protease is the equilibrium dissociation constant K1 of the enzyme-inhibitor complex. This K1 value can be determined via the effect of the inhibitor on the tryptase-induced cleavage of a chromogenic peptide-p-nitroanilide substrate or a fluorogenic peptide-aminomethylcoumarin substrate.
The dissociation constants for the tryptase-inhibitor complexes are determined under equilibrium conditions in accordance with the general proposals of Bieth (Bieth J G, Pathophysiological Interpretation of kinetic constants of protease inhibitors, Bull. Europ. Physiopath. Resp. 16:183-195, 1980) and the methods of Sommerhoff et al. (Sommerhoff C P et al., A Kazal-type inhibitor of human mast cell tryptase: Isolation from the medical leech Hirudo medicinalis, characterization, and sequence analysis, Biol. Chem. Hoppe-Seyler 375: 685-694, 1994).
Human tryptase is isolated from lung tissue or prepared recombinantly; the specific activity of the protease, determined by titration, is usually greater than 85% of the theoretical value. In the presence of heparin (0.1-50 μg/ml) for stabilizing the protease, constant amounts of the tryptase are incubated with increasing amounts of the inhibitors. After an equilibrium between the reaction partners has formed, the remaining enzyme activity after addition of the peptide-p-nitroanilide substrate tos-Gly-Pro-arg-pNA is determined and the cleavage of the latter is monitored at 405 nm for 3 min. Alternatively, the remaining enzymatic activity can also be determined using fluorogenic substrates. The apparent dissociation constants Klapp (i.e. in the presence of substrate) are subsequently determined by adapting the enzyme rates to the general equation for reversible inhibitors (Morrison J F, Kinetics of the reversible inhibition of enzyme-catalyzed reactions by tight-binding inhibitors, Biochim. Biophys. Acta 185, 269-286, 1969) using non-linear regression: V1/V0=1−{Et+It+Klapp−(Et+ItKlapp)^2−4EtIt]^1/2}/2Et V1 and V0 are the rates in the presence and absence, respectively, of the inhibitor, and Et and It are the tryptase and inhibitor concentrations, respectively.
The apparent dissociation constants determined for the compounds according to the invention are shown in Table A below, where the numbers of the compounds correspond to the numbers of the compounds in the examples [pKlapp=−logKlapp (mol/l)].

`COC(=O)C1CC(NC(=O)CN2CCC(=O)N(CC(=O)NC3CC(C(=O)OC)N(C(=O)CCc4ccc(CN)cc4)C3)CCC2=O)CN1C(=O)CCc1ccc(CN)cc1.Cl.Cl` (centres unmarked) [Compound 1, 1,5-Bis{N,N′-[1-(3-(4-aminomethylphenyl)propionyl)-2-methoxycarbonylpyrrolidin-4-yl]aminocarbonylmethyl}perhydro-1,5-diazocine-2,6-dione dihydrochloride] was tested. Which pKiapp did it give?
The pKiapp was 9.05.

How did the pKiapp turn out when `Cl.Cl.NCc1ccc(CCC(=O)N2CC(NC(=O)CN3CCC(=O)N(CC(=O)NC4CC(C(=O)OCc5ccccc5)N(C(=O)CCc5ccc(CN)cc5)C4)CCC3=O)CC2C(=O)OCc2ccccc2)cc1` (centres unmarked) [Compound 2, 1,5-Bis{N,N′-[1-(3-(4-aminomethylphenyl)propionyl)-2-benzyloxycarbonylpyrrolidin-4-yl]aminocarbonylmethyl}perhydro-1,5-diazocine-2,6-dione dihydrochloride] was run?
Its pKiapp is 9.22.

For `Cl.Cl.NCc1ccc(CCC(=O)N2CC(NC(=O)CN3CCC(=O)N(CC(=O)NC4CC(C(=O)O)N(C(=O)CCc5ccc(CN)cc5)C4)CCC3=O)CC2C(=O)O)cc1` (centres unmarked) [Compound 3, 1,5-Bis{N,N′-[1-(3-(4-aminomethylphenyl)proplonyl)-2-carboxypyrrlidin-4-yl]-aminocarbonylmethyl}perhydro-1,5-diazocine-2,6-dine dihydrochloride], which pKiapp is on record?
The pKiapp was 7.43.

With `Cl.Cl.NCc1ccc(CCC(=O)N2CC(NC(=O)CN3CCC(=O)N(CC(=O)NC4CC(C(=O)NC5CC5)N(C(=O)CCc5ccc(CN)cc5)C4)CCC3=O)CC2C(=O)NC2CC2)cc1` (centres unmarked) [Compound 4, 1,5-Bis{N,N′-[1-(3-(4-aminomethylphenyl)propionyl)-2-cyclopropylaminocarbonyl-pyrrolidin-4-yl]aminocarbonylmethyl}perhydro-1,5-diazocine-2,6-dione dihydrochloride] as the molecule, how does the pKiapp read?
Its pKiapp is 9.66.

With `Cl.Cl.NCc1ccc(CCC(=O)N2CC(NC(=O)CN3CCC(=O)N(CC(=O)NC4CC(C(N)=O)N(C(=O)CCc5ccc(CN)cc5)C4)CCC3=O)CC2C(N)=O)cc1` (centres unmarked) [Compound 5, 1,5-Bis{N,N′-[1-(3-(4-aminomethylphenyl)proplonyl)-2-aminocarbonylpyrrolidin-4-yl]-aminocarbonylmethyl}perhydro-1,5-diazocine-2,6-dione dihydrochloride] as the molecule, how does the pKiapp read?
Its pKiapp is 8.80.
